Results reported in patent US10143705B2, “Method of treating a patient with a disease caused by a pathogenic mechanism associated with accumlation of methylglyoxal” (priority 2015, dated 2018).

Assay: Inhibitory effect of monosaccharides against methylglyoxal in vitro
Settings: concentration 0.05 M
From the text: The percentage inhibitory ratio of monosaccharide against methylglyoxal is 50% when the concentration of the monosaccharide is 0.05 M.
Foregoing exemplary embodiments of the present invention manifest that the low-molecular-weight chitosan has considerable effect to the carbonyl stress induced by the methylglyoxal both in vivo and in vitro. For an exemplary embodiment in vitro, the present invention employs buffer to simulate the same environmental status as human body by means of putting glucosamine and low-molecular-weight chitosan into buffer containing methylglyoxal to measure the bonding ratio thereof after 16 hours so that the half Inhibitory concentration associated with the affecting of low-molecular-weight chitosan to methylglyoxal can be obtained for further study on the examination of the binding conjugation of low-molecular-weight chitosan with methylglyoxal in vitro.

Question: Which “percentage inhibitory ratio against methylglyoxal” value does the source give for `NC1C(O)[C@H](O)C(CO)O[C@@H]1O` (stereo partly shown) [monosaccharide, glucosamine] here?
Answer: Its value is 50%.
